Reference: patent publication US12617780B2, “Benzothiophene, thienopyridine and thienopyrimidine derivatives for the modulation of sting” (CTXT PTY LTD, priority 2019, dated 2026)

Columns and labels:
[1] = target: T1, human HAQ isoform of STING (Homo sapiens, UniProt Q86WV6, G230A/H232R/R293Q/R71H); assay: THP-1 STING Lucia ISG reporter cell line assay; type: cell-based; conditions: 24 h incubation, QUANTI-Luc luminescence; normalised to 40 μM ML RR-S2 CDA; read-out: EC50 THP-1 STING Lucia ISG cells
T1 construct: host or cells: THP-1 STING Lucia ISG cells
T1 sequence (Q86WV6 whole entry R71H/G230A/H232R/R293Q, canonical isoform): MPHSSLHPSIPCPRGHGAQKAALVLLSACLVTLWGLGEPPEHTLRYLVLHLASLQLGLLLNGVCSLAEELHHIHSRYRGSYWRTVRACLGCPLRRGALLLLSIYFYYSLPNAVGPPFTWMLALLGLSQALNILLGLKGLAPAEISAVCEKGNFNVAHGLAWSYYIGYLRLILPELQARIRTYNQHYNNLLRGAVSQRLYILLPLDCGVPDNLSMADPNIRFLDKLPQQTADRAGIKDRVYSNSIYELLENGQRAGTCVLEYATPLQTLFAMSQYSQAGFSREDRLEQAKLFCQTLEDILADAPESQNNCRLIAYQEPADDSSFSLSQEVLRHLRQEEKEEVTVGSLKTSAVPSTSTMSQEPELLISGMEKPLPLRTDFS
Procedure: (§1) THP-1 STING Lucia ISG cells (InvivoGen #thpl-isg) were cultured in RPMI-1640 containing 2 mM L-glutamine, 25 mM HEPES, 100 μg/mL Normocin (InvivoGen) and 10% heat-inactivated FBS. Cells were seeded at a density of 7×10^5 cells/mL, maintained at 37° C./5% CO2, and passaged every 3-4 days. Selection pressure was maintained by the addition of 100 μg/mL Zeocin every second passage.
(§2) Assay conditions: cells were harvested and resuspended at a concentration of 5×10^5 cells/mL in fresh growth media. Of this cell preparation 20 μL per well was dispensed into 384 well cell culture plates (Greiner, #781098X) and incubated at 37° C./5% CO2 for 2 hours.
(§3) Concentration Response Curves (commonly 11 doses) were prepared by 2.5 fold serial dilution starting from 10 mM compound stock solution in DMSO. Compound dilutions were transferred into the cell culture plates using a pintool (0.1 μL transfer), control wells were matched for DMSO. Positive control wells received ML RR-S2 CDA (Med Chem Express HY12885B) in 5 μL of media to a final concentration of 40 μM. All other wells received additional 5 μL of media only to equalise volume. The plates were incubated for 24 h at 37° C./5% CO2.
(§4) For the detection step, QUANTI-Luc (InvivoGen #rep-qlc1) was prepared according to manufacturer's instruction and 10 μL were added per well to the culture plates. Plates were shaken for ten seconds on an orbital shaker and left in the dark at room temperature for two minutes, before luminescence was read on a Perkin Elmer Envision plate reader.
(§5) Data analysis: Luminescence raw data was normalised % activity relative to the signal of the positive control wells and negative control wells which were not treated with compound. The following formula was used to calculate normalised % activity from raw signals: % activity=(sample−negative)/(positive−negative)
(§6) The THP-1 STING Lucia ISG cell EC50 provides an assessment of activity at the human HAQ isoform of STING. For assessing compound activity against the WT human STING isoform, an equivalent method was conducted where the cells used were THP-1-Dual KI-hSTING-R232 (InvivoGen #thpd-r232).

huSTING (WT) = target: T2, huSTING (WT) (Homo sapiens, UniProt Q86WV6, H232R); assay: Surface Plasmon Resonance (SPR) STING (WT); type: binding; conditions: biotinylated STING on streptavidin chip, 8° C.; 50% occupancy as surrogate KD
T2 construct: made in house; host or cells: E. coli BL21 DE3
T2 sequence (Q86WV6 with tags, fused parts or gaps H232R): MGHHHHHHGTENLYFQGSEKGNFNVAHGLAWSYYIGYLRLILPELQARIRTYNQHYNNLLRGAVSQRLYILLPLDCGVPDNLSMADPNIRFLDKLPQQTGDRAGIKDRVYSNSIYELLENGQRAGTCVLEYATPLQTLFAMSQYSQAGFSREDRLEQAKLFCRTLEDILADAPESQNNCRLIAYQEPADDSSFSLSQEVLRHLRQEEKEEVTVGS
From the text: (§7) To determine binding affinities (50% occupancy as a surrogate Ko for the two binding events occurring) from dose-response experiments, binding responses at equilibrium were fit to a Hill equation, where the Hill coefficient was floated (52). For single-cycle kinetic experiments, sensorgrams were fit to a two-step kinetic model in which two analyte molecules bind sequentially (Biacore T200 or S200 Evaluation Software).

huSTING (HAQ) = target: T3, huSTING (HAQ) (Homo sapiens, UniProt Q86WV6, G230A/H232R/R293Q); assay: Surface Plasmon Resonance (SPR) STING (HAQ); type: binding; conditions: biotinylated STING on streptavidin chip, 8° C.; 50% occupancy as surrogate KD
T3 construct: made in house; host or cells: E. coli BL21 DE3
T3 sequence (Q86WV6 with tags, fused parts or gaps G230A/H232R/R293Q): as the sequence (Q86WV6 with tags, fused parts or gaps H232R) above, with G100A, R163Q counted along it
From the text: as §7

WT human STING isoform = target: T4, WT human STING isoform (Homo sapiens, UniProt Q86WV6, H232R); assay: THP-1-Dual KI-hSTING-R232 reporter cell line assay; type: cell-based; conditions: 24 h incubation, QUANTI-Luc luminescence; normalised to 40 μM ML RR-S2 CDA; read-out: EC50 THP-1 Dual KI-hSTING-R232 cells
T4 construct: host or cells: THP-1-Dual KI-hSTING-R232
T4 sequence (Q86WV6 whole entry H232R, canonical isoform): as the sequence (Q86WV6 whole entry R71H/G230A/H232R/R293Q, canonical isoform) above, with H71R, A230G, Q293R counted along it
Procedure: as §1, §2, §3, §4, §5, §6

SMILES	EC50 [1]	Kd (huSTING (WT))	Kd (huSTING (HAQ))	EC50 (WT human STING isoform)
CCOC(=O)c1sc2cccc(Cl)c2c1-c1nc2cc(C(N)=O)ccc2n1C (single isomer, unassigned) [Example 5.1, Ethyl 3-(5-Carbamoyl-1-methyl-1H-benzo[d]imidazol-2-yl)-4-chlorobenzo[b]thiophene-2-carboxylate]	8270 nM	–	–	20100 nM
NC(=O)c1ccc2[nH]c(-c3c(C(=O)O)sc4cccc(Cl)c34)nc2c1 [Example 2, 3-(5-Carbamoyl-1H-benzo[d]imidazol-2-yl)-4-chlorobenzo[b]thiophene-2-carboxylic acid]	23900 nM	–	42000 nM	> 40000 nM
COc1c(C(N)=O)cc(F)c2[nH]c(-c3c(C(=O)O)sc4c(F)ccc(Cl)c34)nc12 [Example 21, 3-(5-Carbamoyl-7-fluoro-4-methoxy-1H-benzo[d]imidazol-2-yl)-4-chloro-7-fluorobenzo[b]thiophene-2-carboxylic acid]	3590 nM	–	–	4930 nM
NC(=O)c1ccc2[nH]c(-c3c(C(=O)O)sc4cccc(Cl)c34)nc2c1Cl [Example 13, 3-(5-Carbamoyl-4-chloro-1H-benzo[d]imidazol-2-yl)-4-chlorobenzo[b]thiophene-2-carboxylic acid]	6100 nM	–	33300 nM	4380 nM
NC(=O)c1ccc2[nH]c(-c3c(C(=O)O)sc4c(F)ccc(Br)c34)nc2c1 [Example 8, 4-Bromo-3-(5-carbamoyl-1H-benzo[d]imidazol-2-yl)-7-fluorobenzo[b]thiophene-2-carboxylic acid]	18300 nM	91000 nM	6700 nM	16400 nM
COc1c(C(N)=O)ccc2[nH]c(-c3c(C(=O)O)sc4cccc(OC)c34)nc12 [Example 22, 3-(5-Carbamoyl-4-methoxy-1H-benzo[d]imidazol-2-yl)-4-methoxybenzo[b]thiophene-2-carboxylic acid]	9360 nM	–	–	9040 nM
CCOC(=O)c1sc2cccc(Cl)c2c1-c1nc2ccc(C(N)=O)cc2n1C (single isomer, unassigned) [Example 5.2, Ethyl 3-(6-carbamoyl-1-methyl-1H-benzo[d]imidazol-2-yl)-4-chlorobenzo[b]thiophene-2-carboxylate]	2510 nM	–	–	29400 nM
COc1c(C(N)=O)ccc2[nH]c(-c3c(C(=O)O)sc4c(Br)cnc(OC)c34)nc12 [Example 17, 7-Bromo-3-(5-carbamoyl-4-methoxy-1H-benzo[d]imidazol-2-yl)-4-methoxythieno[3,2-c]pyridine-2-carboxylic acid]	> 40000 nM	19100 nM	3600 nM	> 40000 nM
CCOc1c(C(N)=O)ccc2nc(-c3c(C(=O)O)sc4c(F)ccc(Br)c34)[nH]c12 [Example 15, 4-Bromo-3-(6-carbamoyl-7-ethoxy-1H-benzo[d]imidazol-2-yl)-7-fluorobenzo[b]thiophene-2-carboxylic acid]	> 40000 nM	–	55700 nM	> 40000 nM

Other lines, results leading:

EC50 [1]	Kd (huSTING (WT))	Kd (huSTING (HAQ))	EC50 (WT human STING isoform)	SMILES
2460 nM	51000 nM	3100 nM	4670 nM	COc1c(C(N)=O)ccc2nc(-c3c(C(=O)O)sc4cccc(Cl)c34)[nH]c12 [Example 9, 3-(6-Carbamoyl-7-methoxy-1H-benzo[d]imidazol-2-yl)-4-chlorobenzo[b]thiophene-2-carboxylic acid]
455 nM	–	–	2580 nM	CCOC(=O)c1sc2cccc(Cl)c2c1-c1nc2cc(C(N)=O)cc(F)c2[nH]1 [Example 3, Ethyl 3-(5-carbamoyl-7-fluoro-1H-benzo[d]imidazol-2-yl)-4-chlorobenzo[b]thiophene-2-carboxylate]
576 nM	–	–	2720 nM	CCOC(=O)c1sc2c(F)ccc(Br)c2c1-c1nc2ccc(C(N)=O)c(OCC)c2[nH]1 [Example 14, Ethyl 4-bromo-3-(6-carbamoyl-7-ethoxy-1H-benzo[d]imidazol-2-yl)-7-fluorobenzo[b]thiophene-2-carboxylate]
574 nM	–	–	7070 nM	CCOC(=O)c1sc2cccc(Cl)c2c1-c1nc2cc(C(N)=O)ccc2[nH]1 [Example 1, Ethyl 3-(5-carbamoyl-1H-benzo[d]imidazol-2-yl)-4-chlorobenzo[b]thiophene-2-carboxylate]
12 nM	–	–	24 nM	CCOC(=O)c1sc2cccc(Cl)c2c1-c1nc2c(Cl)c(C(N)=O)ccc2[nH]1 [Example 12, Ethyl 3-(5-carbamoyl-4-chloro-1H-benzo[d]imidazol-2-yl)-4-chlorobenzo[b]thiophene-2-carboxylate]
122 nM	–	–	131 nM	CCOC(=O)c1sc2c(F)ccc(Cl)c2c1-c1nc2c(OC)c(C(N)=O)ccc2[nH]1 [Example 20, Ethyl 3-(5-carbamoyl-4-methoxy-1H-benzo[d]imidazol-2-yl)-4-chloro-7-fluorobenzo[b]thiophene-2-carboxylate]
1830 nM	–	–	2270 nM	CCOC(=O)c1sc2c(F)ccc(Cl)c2c1-c1nc2c(OC)c(C(N)=O)cc(Cl)c2[nH]1 [Example 18, Ethyl 3-(5-carbamoyl-7-chloro-4-methoxy-1H-benzo[d]imidazol-2-yl)-4-chloro-7-fluorobenzo[b]thiophene-2-carboxylate]
115 nM	–	–	119 nM	CCOC(=O)c1sc2c(F)ccc(Cl)c2c1-c1nc2c(OC)c(C(N)=O)cc(F)c2[nH]1 [Example 23, Ethyl 3-(5-carbamoyl-7-fluoro-4-methoxy-1H-benzo[d]imidazol-2-yl)-4-chloro-7-fluorobenzo[b]thiophene-2-carboxylate]
1550 nM	–	–	2730 nM	CCOC(=O)c1sc2c(Br)cnc(OC)c2c1-c1nc2c(OC)c(C(N)=O)ccc2[nH]1 [Example 16, Ethyl 7-bromo-3-(5-carbamoyl-4-methoxy-1H-benzo[d]imidazol-2-yl)-4-methoxythieno[3,2-c]pyridine-2-carboxylate]
441 nM	–	–	2120 nM	CCOC(=O)c1sc2c(F)ccc(Br)c2c1-c1nc2cc(C(N)=O)ccc2[nH]1 [Example 7, Ethyl 4-bromo-3-(5-carbamoyl-1H-benzo[d]imidazol-2-yl)-7-fluorobenzo[b]thiophene-2-carboxylate]
4.1 nM	–	–	57 nM	CCOC(=O)c1sc2cccc(Cl)c2c1-c1nc2ccc(C(N)=O)c(OC)c2[nH]1 [Example 4, Ethyl 3-(6-carbamoyl-7-methoxy-1H-benzo[d]imidazol-2-yl)-4-chlorobenzo[b]thiophene-2-carboxylate]
43 nM	–	–	121 nM	CCOC(=O)c1sc2c(F)ccc(Br)c2c1-c1nc2ccc(C(N)=O)c(OC)c2[nH]1 [Example 10, Ethyl 4-bromo-3-(6-carbamoyl-7-methoxy-1H-benzo[d]imidazol-2-yl)-7-fluorobenzo[b]thiophene-2-carboxylate]
651 nM	1450 nM	140 nM	1040 nM	COc1c(C(N)=O)ccc2nc(-c3c(C(=O)O)sc4c(F)ccc(Br)c34)[nH]c12 [Example 11, 4-Bromo-3-(6-carbamoyl-7-methoxy-1H-benzo[d]imidazol-2-yl)-7-fluorobenzo[b]thiophene-2-carboxylic acid]
28 nM	–	–	82 nM	CCOC(=O)c1sc2cccc(OC)c2c1-c1nc2c(OC)c(C(N)=O)ccc2[nH]1 [Example 19, Ethyl 3-(5-carbamoyl-4-methoxy-1H-benzo[d]imidazol-2-yl)-4-methoxybenzo[b]thiophene-2-carboxylate]
